Source: PMC11167047 (Cell Death Discovery, 2024)

Key:
Experiment in all cases: kinome screen (33PanQinase)
Assay type in all cases: biochemical
BTK = biological target: T1, BTK (Homo sapiens, UniProt Q06187)
T1 construct: purchased Reaction Biology Europe GmbH (formerly ProQinase)
Protocol: (§1) The Kinome Screening was performed by Reaction Biology Europe GmbH (http://reactionbiology.com; Freiburg i. Br., Germany).

CDK4/CycD1 = biological target: T2, CDK4/CycD1 (Homo sapiens, UniProt P11802)
T2 construct: purchased Reaction Biology Europe GmbH (formerly ProQinase)
T2 sequence (P11802 whole entry): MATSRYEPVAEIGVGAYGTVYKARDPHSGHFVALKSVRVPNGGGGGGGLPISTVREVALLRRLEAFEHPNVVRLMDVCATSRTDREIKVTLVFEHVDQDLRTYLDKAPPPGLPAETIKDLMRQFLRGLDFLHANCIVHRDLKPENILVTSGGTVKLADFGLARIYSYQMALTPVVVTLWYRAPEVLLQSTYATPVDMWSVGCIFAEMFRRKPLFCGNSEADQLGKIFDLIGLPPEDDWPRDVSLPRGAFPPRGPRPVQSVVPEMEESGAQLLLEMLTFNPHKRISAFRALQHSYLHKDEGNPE
T2 sequence (P24385 whole entry partner): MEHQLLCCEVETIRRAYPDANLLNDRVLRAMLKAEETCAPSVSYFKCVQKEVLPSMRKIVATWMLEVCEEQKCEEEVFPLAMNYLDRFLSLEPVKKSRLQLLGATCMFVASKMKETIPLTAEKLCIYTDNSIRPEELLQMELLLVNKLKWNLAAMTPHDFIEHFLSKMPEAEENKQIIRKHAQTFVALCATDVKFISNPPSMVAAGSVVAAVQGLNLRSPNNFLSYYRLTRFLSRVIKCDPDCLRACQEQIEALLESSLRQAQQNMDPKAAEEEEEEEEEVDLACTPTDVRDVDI
Protocol: as §1

EPHA6 = biological target: T3, EPHA6 (Homo sapiens, UniProt Q9UF33)
T3 construct: purchased Reaction Biology Europe GmbH (formerly ProQinase)
T3 sequence (Q9UF33 23-1036): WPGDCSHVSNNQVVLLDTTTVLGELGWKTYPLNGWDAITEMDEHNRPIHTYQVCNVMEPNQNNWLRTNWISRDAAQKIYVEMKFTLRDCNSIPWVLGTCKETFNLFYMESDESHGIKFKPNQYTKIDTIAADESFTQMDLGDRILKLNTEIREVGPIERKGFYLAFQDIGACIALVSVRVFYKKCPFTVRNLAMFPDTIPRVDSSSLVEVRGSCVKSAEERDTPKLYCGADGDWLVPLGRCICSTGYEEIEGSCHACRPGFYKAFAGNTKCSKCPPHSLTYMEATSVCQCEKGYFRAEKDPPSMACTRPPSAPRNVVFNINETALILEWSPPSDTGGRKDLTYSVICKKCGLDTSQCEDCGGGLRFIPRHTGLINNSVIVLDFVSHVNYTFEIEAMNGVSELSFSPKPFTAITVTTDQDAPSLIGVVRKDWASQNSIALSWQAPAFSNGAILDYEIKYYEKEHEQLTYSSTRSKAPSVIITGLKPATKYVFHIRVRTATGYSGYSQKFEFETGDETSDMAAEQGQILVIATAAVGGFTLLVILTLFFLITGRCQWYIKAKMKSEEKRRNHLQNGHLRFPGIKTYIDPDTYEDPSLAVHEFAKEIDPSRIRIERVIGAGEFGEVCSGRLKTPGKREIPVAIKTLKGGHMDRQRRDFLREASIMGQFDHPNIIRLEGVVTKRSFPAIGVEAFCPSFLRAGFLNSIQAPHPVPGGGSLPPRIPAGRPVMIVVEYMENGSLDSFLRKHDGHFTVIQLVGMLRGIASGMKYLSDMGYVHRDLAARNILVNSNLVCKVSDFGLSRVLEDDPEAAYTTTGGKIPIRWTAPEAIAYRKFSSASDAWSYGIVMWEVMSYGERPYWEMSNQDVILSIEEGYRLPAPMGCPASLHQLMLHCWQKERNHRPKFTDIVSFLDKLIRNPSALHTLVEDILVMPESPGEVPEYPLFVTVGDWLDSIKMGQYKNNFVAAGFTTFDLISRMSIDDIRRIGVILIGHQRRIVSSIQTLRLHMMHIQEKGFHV
Protocol: as §1

ERK2 = biological target: T4, ERK2 (Homo sapiens, UniProt P28482)
T4 construct: purchased Reaction Biology Europe GmbH (formerly ProQinase)
T4 sequence (P28482 whole entry): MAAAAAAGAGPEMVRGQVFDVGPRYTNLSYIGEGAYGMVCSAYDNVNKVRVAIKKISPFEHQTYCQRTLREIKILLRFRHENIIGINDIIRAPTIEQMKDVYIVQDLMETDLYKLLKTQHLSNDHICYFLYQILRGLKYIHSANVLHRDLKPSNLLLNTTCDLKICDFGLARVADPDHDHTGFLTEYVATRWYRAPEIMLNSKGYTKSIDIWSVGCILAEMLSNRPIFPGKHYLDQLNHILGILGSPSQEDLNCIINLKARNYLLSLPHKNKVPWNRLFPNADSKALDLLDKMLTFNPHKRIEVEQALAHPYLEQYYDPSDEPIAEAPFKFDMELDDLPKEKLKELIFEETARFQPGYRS
Protocol: as §1

JNK3 = biological target: T5, JNK3 (Homo sapiens, UniProt P53779)
T5 construct: purchased Reaction Biology Europe GmbH (formerly ProQinase)
T5 sequence (P53779 whole entry): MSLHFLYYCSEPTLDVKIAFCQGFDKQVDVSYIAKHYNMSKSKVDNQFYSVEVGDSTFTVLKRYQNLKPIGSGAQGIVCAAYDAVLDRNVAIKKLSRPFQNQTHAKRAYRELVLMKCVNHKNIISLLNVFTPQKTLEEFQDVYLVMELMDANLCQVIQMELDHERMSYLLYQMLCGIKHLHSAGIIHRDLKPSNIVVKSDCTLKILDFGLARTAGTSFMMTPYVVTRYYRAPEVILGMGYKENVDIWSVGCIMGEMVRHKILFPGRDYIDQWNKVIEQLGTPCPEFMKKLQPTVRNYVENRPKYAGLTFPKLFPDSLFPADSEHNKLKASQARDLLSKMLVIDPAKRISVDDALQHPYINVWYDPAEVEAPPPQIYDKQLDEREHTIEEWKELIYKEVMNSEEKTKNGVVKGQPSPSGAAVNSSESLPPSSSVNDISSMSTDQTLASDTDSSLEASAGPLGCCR
Protocol: as §1

MAP4K4 = biological target: T6, MAP4K4 (Homo sapiens, UniProt O95819)
T6 construct: purchased Reaction Biology Europe GmbH (formerly ProQinase)
T6 sequence (O95819 whole entry): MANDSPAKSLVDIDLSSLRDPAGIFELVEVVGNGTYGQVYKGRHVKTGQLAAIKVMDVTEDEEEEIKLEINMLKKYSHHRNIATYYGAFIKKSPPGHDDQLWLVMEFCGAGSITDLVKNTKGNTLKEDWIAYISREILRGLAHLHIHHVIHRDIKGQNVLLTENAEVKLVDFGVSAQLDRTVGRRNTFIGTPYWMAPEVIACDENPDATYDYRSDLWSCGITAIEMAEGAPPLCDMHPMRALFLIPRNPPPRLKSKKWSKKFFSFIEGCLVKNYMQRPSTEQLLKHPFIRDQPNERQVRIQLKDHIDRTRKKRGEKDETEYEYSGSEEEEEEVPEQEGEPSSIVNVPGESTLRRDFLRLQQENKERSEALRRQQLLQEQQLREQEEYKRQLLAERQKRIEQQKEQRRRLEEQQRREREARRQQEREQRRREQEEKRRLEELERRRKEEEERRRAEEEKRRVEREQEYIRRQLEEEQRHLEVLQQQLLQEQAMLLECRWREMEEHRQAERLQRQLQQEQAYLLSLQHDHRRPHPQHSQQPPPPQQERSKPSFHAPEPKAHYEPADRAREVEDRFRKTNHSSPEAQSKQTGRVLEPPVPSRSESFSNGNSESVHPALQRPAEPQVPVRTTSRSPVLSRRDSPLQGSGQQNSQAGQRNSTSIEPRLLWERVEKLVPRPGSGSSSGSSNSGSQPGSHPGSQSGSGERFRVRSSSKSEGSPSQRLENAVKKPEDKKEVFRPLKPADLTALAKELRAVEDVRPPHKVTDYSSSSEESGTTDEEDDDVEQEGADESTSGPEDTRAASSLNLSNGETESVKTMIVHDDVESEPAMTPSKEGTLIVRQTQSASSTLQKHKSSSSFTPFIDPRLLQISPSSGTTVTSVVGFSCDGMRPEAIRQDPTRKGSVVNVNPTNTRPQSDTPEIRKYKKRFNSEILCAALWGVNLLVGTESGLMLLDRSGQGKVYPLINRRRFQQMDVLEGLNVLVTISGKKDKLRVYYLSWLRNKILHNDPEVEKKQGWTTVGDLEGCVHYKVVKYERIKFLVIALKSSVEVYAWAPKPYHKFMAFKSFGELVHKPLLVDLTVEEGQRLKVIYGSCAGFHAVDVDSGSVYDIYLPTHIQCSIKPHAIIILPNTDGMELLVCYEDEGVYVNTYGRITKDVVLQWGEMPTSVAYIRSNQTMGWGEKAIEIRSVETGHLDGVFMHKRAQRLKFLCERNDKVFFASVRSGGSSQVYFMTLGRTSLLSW
Protocol: as §1

MAP4K5 = biological target: T7, MAP4K5 (Homo sapiens, UniProt Q9Y4K4)
T7 construct: purchased Reaction Biology Europe GmbH (formerly ProQinase)
T7 sequence (Q9Y4K4 whole entry): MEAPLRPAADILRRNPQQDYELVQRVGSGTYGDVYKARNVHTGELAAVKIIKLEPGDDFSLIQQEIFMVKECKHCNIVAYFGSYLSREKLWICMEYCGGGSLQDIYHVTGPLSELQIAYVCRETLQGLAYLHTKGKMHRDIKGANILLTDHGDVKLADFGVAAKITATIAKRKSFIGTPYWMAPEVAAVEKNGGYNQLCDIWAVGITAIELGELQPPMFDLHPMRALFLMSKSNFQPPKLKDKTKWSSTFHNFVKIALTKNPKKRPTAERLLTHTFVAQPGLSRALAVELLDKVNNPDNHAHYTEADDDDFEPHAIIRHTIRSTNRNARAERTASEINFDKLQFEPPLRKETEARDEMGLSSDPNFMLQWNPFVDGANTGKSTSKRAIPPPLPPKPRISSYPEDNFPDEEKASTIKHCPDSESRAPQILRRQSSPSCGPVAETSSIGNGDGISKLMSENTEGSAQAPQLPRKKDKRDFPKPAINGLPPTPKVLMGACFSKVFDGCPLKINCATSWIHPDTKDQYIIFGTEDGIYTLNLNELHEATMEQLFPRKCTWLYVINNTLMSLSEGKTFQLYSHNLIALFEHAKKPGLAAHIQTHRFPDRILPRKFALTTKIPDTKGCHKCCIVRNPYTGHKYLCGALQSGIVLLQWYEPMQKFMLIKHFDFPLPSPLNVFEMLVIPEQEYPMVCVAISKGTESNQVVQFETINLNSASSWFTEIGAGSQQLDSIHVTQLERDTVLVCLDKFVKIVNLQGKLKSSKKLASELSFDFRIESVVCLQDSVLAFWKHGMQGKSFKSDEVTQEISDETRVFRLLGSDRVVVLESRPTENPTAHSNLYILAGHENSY
Protocol: as §1

MEK2 = biological target: T8, MEK2 (Homo sapiens, UniProt P36507)
T8 construct: purchased Reaction Biology Europe GmbH (formerly ProQinase)
T8 sequence (P36507 whole entry): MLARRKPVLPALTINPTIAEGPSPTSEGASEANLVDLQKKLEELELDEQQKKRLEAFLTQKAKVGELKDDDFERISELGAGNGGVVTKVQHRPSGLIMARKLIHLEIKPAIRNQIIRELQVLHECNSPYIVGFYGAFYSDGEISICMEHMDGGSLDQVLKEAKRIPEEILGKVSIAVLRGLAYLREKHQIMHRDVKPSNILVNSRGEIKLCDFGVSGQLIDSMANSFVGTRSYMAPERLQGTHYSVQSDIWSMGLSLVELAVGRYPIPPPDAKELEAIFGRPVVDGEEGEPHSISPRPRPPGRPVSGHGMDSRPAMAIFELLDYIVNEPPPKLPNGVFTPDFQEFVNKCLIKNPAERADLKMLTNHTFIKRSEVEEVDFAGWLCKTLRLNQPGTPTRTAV
Protocol: as §1

PBK = biological target: T9, PBK (Homo sapiens, UniProt Q96KB5)
T9 construct: purchased Reaction Biology Europe GmbH (formerly ProQinase)
T9 sequence (Q96KB5 1-322): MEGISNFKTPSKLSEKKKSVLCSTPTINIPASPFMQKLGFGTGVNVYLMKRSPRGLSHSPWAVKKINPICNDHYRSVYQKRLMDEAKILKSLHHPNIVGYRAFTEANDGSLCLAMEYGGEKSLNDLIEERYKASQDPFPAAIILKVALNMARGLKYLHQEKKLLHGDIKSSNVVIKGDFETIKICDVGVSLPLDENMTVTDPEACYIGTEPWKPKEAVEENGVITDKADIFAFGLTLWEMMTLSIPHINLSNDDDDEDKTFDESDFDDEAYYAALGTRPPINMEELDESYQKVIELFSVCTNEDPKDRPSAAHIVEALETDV
Protocol: as §1

PKMYT1 = biological target: T10, PKMYT1 (Homo sapiens, UniProt Q99640)
T10 construct: purchased Reaction Biology Europe GmbH (formerly ProQinase)
T10 sequence (Q99640 1-499): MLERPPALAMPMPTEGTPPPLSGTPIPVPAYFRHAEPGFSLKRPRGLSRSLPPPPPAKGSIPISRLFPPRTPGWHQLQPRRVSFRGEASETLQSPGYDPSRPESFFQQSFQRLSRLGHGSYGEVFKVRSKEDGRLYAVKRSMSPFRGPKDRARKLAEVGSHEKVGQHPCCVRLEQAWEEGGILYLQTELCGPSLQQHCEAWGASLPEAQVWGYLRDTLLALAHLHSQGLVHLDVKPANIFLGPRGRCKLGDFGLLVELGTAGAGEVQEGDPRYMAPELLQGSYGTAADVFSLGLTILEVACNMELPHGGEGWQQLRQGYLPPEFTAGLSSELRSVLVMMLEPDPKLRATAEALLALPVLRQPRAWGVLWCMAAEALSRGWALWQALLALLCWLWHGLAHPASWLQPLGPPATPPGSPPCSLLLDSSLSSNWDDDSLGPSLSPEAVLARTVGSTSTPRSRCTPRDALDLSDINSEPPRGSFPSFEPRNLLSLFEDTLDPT
Protocol: as §1

T1 sequence (Q06187 whole entry): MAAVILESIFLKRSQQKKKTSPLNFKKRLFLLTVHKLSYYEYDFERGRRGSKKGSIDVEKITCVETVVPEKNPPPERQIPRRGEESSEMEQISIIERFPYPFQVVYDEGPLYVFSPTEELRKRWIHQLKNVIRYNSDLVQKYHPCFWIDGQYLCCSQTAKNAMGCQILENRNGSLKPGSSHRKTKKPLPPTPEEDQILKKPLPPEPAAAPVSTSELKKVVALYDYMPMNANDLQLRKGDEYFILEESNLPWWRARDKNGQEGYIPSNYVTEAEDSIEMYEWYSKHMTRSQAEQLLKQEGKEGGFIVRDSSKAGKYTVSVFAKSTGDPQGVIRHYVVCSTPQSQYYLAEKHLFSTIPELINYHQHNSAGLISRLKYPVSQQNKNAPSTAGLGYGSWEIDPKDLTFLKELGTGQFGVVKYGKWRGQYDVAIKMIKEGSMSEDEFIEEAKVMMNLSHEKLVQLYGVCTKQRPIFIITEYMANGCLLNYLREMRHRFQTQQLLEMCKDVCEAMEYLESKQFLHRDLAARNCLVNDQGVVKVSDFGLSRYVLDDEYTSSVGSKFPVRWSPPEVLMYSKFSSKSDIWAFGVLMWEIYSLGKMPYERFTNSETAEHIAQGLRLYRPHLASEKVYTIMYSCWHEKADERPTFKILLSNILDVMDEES

Structure (SMILES) | residual kinase activity (BTK; 0.3 µM) | residual kinase activity (CDK4/CycD1; 0.3 µM) | residual kinase activity (EPHA6; 0.3 µM) | residual kinase activity (ERK2; 0.3 µM) | residual kinase activity (JNK3; 0.3 µM) | residual kinase activity (MAP4K4; 0.3 µM) | residual kinase activity (MAP4K5; 0.3 µM) | residual kinase activity (MEK2; 0.3 µM) | residual kinase activity (PBK; 0.3 µM) | residual kinase activity (PKMYT1; 0.3 µM) | also measured
COc1ccnc2[nH]cc(-c3cc(N)nc(N)c3)c12 [meriolin 16] | 96 % of control | 36 % of control | 105 % of control | 87 % of control | 68 % of control | 29 % of control | 52 % of control | 48 % of control | 90 % of control | 23 % of control | residual kinase activity (BTK; 0.03 µM): 114 % of control; residual kinase activity (CDK4/CycD1; 0.03 µM): 86 % of control; residual kinase activity (EPHA6; 0.03 µM): 98 % of control; residual kinase activity (ERK2; 0.03 µM): 103 % of control; residual kinase activity (JNK3; 0.03 µM): 73 % of control; residual kinase activity (MAP4K4; 0.03 µM): 76 % of control; residual kinase activity (MAP4K5; 0.03 µM): 87 % of control; residual kinase activity (MEK2; 0.03 µM): 66 % of control; residual kinase activity (PBK; 0.03 µM): 95 % of control; residual kinase activity (PKMYT1; 0.03 µM): 32 % of control
c1ccc(CNc2cc(-c3c[nH]c4ncccc34)ccn2)cc1 [meriolin 36] | 103 % of control | 24 % of control | 101 % of control | 79 % of control | 54 % of control | 6 % of control | 3 % of control | 13 % of control | 69 % of control | 39 % of control | residual kinase activity (BTK; 3 µM): 77 % of control; residual kinase activity (CDK4/CycD1; 3 µM): 4 % of control; residual kinase activity (EPHA6; 3 µM): 65 % of control; residual kinase activity (ERK2; 3 µM): 30 % of control; residual kinase activity (JNK3; 3 µM): 13 % of control; residual kinase activity (MAP4K4; 3 µM): 2 % of control; residual kinase activity (MAP4K5; 3 µM): 0 % of control; residual kinase activity (MEK2; 3 µM): 3 % of control; residual kinase activity (PBK; 3 µM): 80 % of control; residual kinase activity (PKMYT1; 3 µM): 13 % of control
